Measured values taken from patent publication US10844077B2, “Thiazolyl-containing compounds for treating proliferative diseases” (Dana-Farber Cancer Institute, Inc., priority 2014, dated 2020).
“And” between values parts separate entries of the source, which are not always exact repeats. Equal entries are not always repeated.

Columns and labels:
Assay type in all cases: cell-based
kinases in BCWM.1 cells [1] = target: kinases in BCWM.1 cells (Homo sapiens, UniProt Q9NZJ5); details: PEK; Lys2; 1 μM, 90 min; GF
Method: (§1) The cells were harvested and lysed. […] Bound kinases were identified and quantitated by ACTIVX as described in Patricelli et al., Biochemistry, 2007, 46(2): 350-358. The compounds were tested in duplicates against duplicate or quadruplicate control samples.

kinases in BCWM.1 cells [2] = target: kinases in BCWM.1 cells (Homo sapiens, UniProt Q86UE8); details: TLK2; Lys2; 1 μM, 90 min; GF
Method: as §1

kinases in BCWM.1 cells [3] = target: kinases in BCWM.1 cells (Homo sapiens, UniProt Q86Y07); details: VRK2; Lys2; 1 μM, 90 min; GF
Method: as §1

kinases in BCWM.1 cells [4] = target: kinases in BCWM.1 cells (Homo sapiens, UniProt Q9UBF8); details: PI4KB; ATP; 1 μM, 90 min; GF
Method: as §1

kinases in BCWM.1 cells [5] = target: kinases in BCWM.1 cells (Homo sapiens, UniProt Q9UKE5); details: ZC2/TNIK; Lys1; 1 μM, 90 min; GF
Method: as §1

kinases in BCWM.1 cells [6] = target: kinases in BCWM.1 cells (Homo sapiens, UniProt Q8TDX7); details: NEK7; Lys1; 1 μM, 90 min; GF
Method: as §1

kinases in BCWM.1 cells [7] = target: kinases in BCWM.1 cells (Homo sapiens, UniProt O00750); details: PIK3C2B; ATP; 1 μM, 90 min; GF
Method: as §1

kinases in BCWM.1 cells [8] = target: kinases in BCWM.1 cells (Homo sapiens, UniProt Q9UKI8); details: TLK1; Lys2; 1 μM, 90 min; GF
Method: as §1

kinases in BCWM.1 cells [9] = target: kinases in BCWM.1 cells (Homo sapiens, UniProt P42338); assay: KINATIV assay of compounds I-3 and I-9, lysate directly labeled with ATP-biotin probe (no GF); details: PIK3CB; ATP; 1 μM, 90 min; no GF
Method: as §1

kinases in BCWM.1 cells [10] = target: kinases in BCWM.1 cells (Homo sapiens, UniProt O43318); assay: as above; details: TAK1; Lys2; 1 μM, 90 min; no GF
Method: as §1

kinases in BCWM.1 cells [11] = target: kinases in BCWM.1 cells (Homo sapiens, UniProt P23443); assay: as above; details: p70S6K; Lys2; 1 μM, 90 min; no GF
Method: as §1

kinases in BCWM.1 cells [12] = target: kinases in BCWM.1 cells (Homo sapiens, UniProt Q8TD19); assay: as above; details: NEK9; Lys2; 1 μM, 90 min; no GF
Method: as §1

kinases in BCWM.1 cells [13] = target: kinases in BCWM.1 cells (Homo sapiens, UniProt O75385); assay: as above; details: ULK1; Lys2; 1 μM, 90 min; no GF
Method: as §1

kinases in BCWM.1 cells [14] = target: kinases in BCWM.1 cells (Homo sapiens, UniProt Q9Y2H1); assay: as above; details: NDR2; Lys2; 1 μM, 90 min; no GF
Method: as §1

kinases in BCWM.1 cells [15] = target: kinases in BCWM.1 cells (Homo sapiens, UniProt Q9NRH2); assay: as above; details: SNRK; Lys2; 1 μM, 90 min; no GF
Method: as §1

kinases in BCWM.1 cells [16] = target: kinases in BCWM.1 cells (Homo sapiens, UniProt P30291); assay: as above; details: Wee1; Lys2; 1 μM, 90 min; no GF
Method: as §1

PIK3C3 = PIK3C3 (Homo sapiens (Human), UniProt Q8NEB9); assay: KINATIV assay; details: 1 μM, 90 minutes, BCWM.1 cells
Sequence of PIK3C3 (Q8NEB9 whole entry): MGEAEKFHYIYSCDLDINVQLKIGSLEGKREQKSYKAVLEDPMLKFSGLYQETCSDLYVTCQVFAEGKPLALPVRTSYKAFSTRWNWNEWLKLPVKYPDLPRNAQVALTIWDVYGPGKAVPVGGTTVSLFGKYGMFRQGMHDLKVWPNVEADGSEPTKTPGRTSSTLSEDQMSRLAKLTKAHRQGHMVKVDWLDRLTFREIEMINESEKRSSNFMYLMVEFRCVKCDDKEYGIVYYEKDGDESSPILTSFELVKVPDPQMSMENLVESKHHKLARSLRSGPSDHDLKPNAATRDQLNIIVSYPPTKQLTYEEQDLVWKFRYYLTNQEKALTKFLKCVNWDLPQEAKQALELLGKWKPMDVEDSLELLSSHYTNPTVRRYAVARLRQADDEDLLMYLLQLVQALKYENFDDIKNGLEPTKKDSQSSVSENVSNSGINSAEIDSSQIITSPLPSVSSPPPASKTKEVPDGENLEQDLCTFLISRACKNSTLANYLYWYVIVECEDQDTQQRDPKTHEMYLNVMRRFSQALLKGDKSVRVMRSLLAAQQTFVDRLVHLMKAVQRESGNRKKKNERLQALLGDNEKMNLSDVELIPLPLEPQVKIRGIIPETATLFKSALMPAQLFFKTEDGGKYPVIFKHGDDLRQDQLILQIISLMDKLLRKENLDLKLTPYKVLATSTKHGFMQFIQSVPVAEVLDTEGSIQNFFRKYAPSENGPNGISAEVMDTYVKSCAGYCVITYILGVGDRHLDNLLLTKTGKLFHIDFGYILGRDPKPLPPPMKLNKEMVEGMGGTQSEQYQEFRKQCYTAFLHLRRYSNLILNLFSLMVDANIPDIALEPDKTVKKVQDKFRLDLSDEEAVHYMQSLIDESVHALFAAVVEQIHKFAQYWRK
Method in brief: (§2)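 Cell lysate + ATP-biotin probe (direct labeling); bound kinases ID'd/quantitated by ACTIVX. Cpds in duplicate vs duplicate or quadruplicate controls.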

MAP2K3 = MAP2K3 (Homo sapiens (Human), UniProt P46734); assay: KINATIV assay; details: 1 μM, 90 minutes, BCWM.1 cells
Sequence of MAP2K3 (P46734 whole entry): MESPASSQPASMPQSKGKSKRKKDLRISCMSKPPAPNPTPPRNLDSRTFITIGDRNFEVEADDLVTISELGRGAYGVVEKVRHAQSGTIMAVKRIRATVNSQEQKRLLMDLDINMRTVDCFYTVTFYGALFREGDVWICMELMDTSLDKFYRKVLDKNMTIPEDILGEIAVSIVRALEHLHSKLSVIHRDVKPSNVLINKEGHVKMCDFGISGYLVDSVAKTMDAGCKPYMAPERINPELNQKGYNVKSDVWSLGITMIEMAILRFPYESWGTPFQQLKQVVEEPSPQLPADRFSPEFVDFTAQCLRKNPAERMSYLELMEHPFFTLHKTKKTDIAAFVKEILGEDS
Method in brief: as §2

MST3 = MST3 (Homo sapiens (Human), UniProt Q9Y6E0); assay: KINATIV assay; details: 1 μM, 90 minutes, BCWM.1 cells
Sequence of MST3 (Q9Y6E0 whole entry): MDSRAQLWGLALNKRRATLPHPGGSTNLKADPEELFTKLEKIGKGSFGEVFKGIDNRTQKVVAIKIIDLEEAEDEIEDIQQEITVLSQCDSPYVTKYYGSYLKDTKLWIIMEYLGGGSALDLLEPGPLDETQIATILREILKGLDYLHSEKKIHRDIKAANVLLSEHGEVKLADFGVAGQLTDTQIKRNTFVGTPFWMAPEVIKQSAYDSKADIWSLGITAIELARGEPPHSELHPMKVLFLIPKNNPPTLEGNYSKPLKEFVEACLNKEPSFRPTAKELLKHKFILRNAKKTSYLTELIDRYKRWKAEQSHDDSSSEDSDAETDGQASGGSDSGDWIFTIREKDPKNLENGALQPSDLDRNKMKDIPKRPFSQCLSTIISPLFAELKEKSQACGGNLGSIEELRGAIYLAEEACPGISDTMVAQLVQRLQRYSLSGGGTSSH
Method in brief: as §2

LOK = LOK (Homo sapiens (Human), UniProt O94804); assay: KINATIV assay; details: 1 μM, 90 minutes, BCWM.1 cells
Sequence of LOK (O94804 whole entry): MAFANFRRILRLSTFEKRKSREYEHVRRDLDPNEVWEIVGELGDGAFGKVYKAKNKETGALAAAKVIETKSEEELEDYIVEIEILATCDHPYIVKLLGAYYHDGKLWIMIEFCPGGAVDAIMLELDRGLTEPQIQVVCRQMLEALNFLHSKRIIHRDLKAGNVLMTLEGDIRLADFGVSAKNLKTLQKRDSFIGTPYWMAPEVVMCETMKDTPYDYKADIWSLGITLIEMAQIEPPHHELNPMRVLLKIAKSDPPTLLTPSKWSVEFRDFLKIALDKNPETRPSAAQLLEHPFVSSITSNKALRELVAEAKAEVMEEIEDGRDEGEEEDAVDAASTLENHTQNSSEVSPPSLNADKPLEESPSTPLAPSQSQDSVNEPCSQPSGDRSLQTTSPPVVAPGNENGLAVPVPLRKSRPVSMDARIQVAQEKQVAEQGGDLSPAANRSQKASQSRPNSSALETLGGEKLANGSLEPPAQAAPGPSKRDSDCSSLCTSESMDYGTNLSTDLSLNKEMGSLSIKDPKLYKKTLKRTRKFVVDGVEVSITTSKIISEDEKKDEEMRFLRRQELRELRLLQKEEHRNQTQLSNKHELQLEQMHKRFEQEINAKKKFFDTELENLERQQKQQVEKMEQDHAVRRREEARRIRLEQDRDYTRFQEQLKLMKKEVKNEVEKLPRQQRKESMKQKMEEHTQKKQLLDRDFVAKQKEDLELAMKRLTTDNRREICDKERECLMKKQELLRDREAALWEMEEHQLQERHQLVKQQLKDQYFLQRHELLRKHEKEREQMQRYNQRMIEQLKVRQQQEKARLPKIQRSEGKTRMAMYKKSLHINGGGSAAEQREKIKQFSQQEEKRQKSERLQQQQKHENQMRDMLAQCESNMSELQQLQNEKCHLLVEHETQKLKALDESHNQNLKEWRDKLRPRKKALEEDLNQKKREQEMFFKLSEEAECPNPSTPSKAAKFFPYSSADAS
Method in brief: as §2

RSK1 domain 1 = RSK1 domain 1 (Homo sapiens (Human), UniProt Q15418); assay: KINATIV assay; details: 1 μM, 90 minutes, BCWM.1 cells
Sequence of RSK1 domain 1 (Q15418 whole entry, the tested form may be a part): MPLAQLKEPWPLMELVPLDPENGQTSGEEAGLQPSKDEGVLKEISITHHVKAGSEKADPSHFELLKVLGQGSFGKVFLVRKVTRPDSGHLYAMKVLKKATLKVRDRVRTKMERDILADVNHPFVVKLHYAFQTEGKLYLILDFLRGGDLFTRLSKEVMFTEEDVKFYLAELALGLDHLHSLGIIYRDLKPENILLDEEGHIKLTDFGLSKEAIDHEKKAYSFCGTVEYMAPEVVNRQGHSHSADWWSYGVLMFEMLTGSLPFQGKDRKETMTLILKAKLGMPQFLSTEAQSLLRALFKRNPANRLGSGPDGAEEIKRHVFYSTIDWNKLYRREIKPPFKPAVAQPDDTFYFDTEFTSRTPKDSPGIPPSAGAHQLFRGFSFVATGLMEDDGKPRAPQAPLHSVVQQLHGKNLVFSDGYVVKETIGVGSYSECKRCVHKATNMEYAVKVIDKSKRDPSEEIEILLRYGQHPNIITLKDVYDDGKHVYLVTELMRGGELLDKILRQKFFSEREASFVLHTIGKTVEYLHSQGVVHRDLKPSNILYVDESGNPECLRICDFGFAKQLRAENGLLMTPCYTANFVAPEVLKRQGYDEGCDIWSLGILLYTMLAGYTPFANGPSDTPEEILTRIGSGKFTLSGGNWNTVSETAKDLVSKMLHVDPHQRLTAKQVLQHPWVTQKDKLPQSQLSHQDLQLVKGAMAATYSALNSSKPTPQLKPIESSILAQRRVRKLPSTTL
Method in brief: as §2

IRAK4 = IRAK4 (Homo sapiens (Human), UniProt Q9NWZ3); assay: KINATIV assay; details: 1 μM, 90 minutes, BCWM.1 cells
Method in brief: as §2

CDK5 = CDK5 (Homo sapiens (Human), UniProt Q00535); assay: KINATIV assay; details: 1 μM, 90 minutes, BCWM.1 cells
Sequence of CDK5 (Q00535 whole entry): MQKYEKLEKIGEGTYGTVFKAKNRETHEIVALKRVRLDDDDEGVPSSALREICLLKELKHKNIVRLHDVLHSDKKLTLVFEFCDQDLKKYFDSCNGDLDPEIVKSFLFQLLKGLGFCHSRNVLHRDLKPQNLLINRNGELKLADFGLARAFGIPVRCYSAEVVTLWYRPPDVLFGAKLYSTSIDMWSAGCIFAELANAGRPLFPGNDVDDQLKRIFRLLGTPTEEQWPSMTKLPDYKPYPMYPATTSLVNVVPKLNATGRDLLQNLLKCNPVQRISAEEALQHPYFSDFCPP
Method in brief: as §2

PLK1 = PLK1 (Homo sapiens (Human), UniProt P53350); assay: KINATIV assay; details: 1 μM, 90 minutes, BCWM.1 cells
Method in brief: as §2

SMG1 = SMG1 (Homo sapiens (Human), UniProt Q96Q15); assay: KINATIV assay; details: 1 μM, 90 minutes, BCWM.1 cells
Method in brief: as §2

NDR2 = NDR2 (Homo sapiens (Human), UniProt Q9Y2H1); assay: KINATIV assay; details: 1 μM, 90 minutes, BCWM.1 cells
Sequence of NDR2 (Q9Y2H1 whole entry): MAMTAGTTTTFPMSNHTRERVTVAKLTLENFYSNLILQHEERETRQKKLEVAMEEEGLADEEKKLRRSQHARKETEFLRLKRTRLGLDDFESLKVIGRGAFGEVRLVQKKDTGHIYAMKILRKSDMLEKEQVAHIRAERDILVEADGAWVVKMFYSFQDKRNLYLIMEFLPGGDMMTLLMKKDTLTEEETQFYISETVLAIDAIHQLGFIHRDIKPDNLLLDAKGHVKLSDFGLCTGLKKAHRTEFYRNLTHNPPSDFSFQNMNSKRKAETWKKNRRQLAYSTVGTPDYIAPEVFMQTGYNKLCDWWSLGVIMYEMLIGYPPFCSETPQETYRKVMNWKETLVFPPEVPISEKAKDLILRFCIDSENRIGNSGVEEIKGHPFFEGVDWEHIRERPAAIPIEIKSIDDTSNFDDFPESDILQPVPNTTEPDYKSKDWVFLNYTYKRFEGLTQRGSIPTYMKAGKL
Method in brief: as §2

FER = FER (Homo sapiens (Human), UniProt P16591); assay: KINATIV assay; details: 1 μM, 90 minutes, BCWM.1 cells
Method in brief: as §2

CHK2 = CHK2 (Homo sapiens (Human), UniProt O96017); assay: KINATIV assay; details: 1 μM, 90 minutes, BCWM.1 cells
Method in brief: as §2

MAP2K5 = MAP2K5 (Homo sapiens (Human), UniProt Q13163); assay: KINATIV assay; details: 1 μM, 90 minutes, BCWM.1 cells
Sequence of MAP2K5 (Q13163 whole entry): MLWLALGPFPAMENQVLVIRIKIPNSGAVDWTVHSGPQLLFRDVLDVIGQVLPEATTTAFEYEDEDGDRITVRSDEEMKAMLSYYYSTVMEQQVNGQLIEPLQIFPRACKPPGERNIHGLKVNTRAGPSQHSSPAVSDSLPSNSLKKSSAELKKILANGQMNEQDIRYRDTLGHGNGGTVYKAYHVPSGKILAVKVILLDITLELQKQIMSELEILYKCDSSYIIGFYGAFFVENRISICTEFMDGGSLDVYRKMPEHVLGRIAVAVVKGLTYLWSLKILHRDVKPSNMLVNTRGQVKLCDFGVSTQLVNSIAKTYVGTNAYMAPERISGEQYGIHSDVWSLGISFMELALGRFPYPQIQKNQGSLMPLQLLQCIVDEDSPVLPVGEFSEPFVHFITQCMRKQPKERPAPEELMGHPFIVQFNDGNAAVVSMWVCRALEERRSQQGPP
Method in brief: as §2

GCK = GCK (Homo sapiens (Human), UniProt Q12851); assay: KINATIV assay; details: 1 μM, 90 minutes, BCWM.1 cells
Method in brief: as §2

CHK1 = CHK1 (Homo sapiens (Human), UniProt O14757); assay: KINATIV assay; details: 1 μM, 90 minutes, BCWM.1 cells
Method in brief: as §2

MAP2K4 = MAP2K4 (Homo sapiens (Human), UniProt P45985); assay: KINATIV assay; details: 1 μM, 90 minutes, BCWM.1 cells
Sequence of MAP2K4 (P45985 whole entry): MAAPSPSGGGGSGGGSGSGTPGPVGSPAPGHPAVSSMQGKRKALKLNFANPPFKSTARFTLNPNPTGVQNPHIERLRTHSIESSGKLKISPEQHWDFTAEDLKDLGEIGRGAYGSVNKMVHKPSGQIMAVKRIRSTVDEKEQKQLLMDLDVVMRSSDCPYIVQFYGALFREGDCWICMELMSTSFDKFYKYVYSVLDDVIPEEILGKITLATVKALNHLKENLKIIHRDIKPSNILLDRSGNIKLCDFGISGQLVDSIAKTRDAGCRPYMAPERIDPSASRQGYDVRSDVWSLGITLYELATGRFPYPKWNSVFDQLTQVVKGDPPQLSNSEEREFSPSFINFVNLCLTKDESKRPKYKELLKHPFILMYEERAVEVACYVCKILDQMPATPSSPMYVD
Method in brief: as §2

Structure (SMILES)	% change of MS signal compared to control sample (kinases in BCWM.1 cells [1])	% change of MS signal compared to control sample (kinases in BCWM.1 cells [2])	% change of MS signal compared to control sample (kinases in BCWM.1 cells [3])	% change of MS signal compared to control sample (kinases in BCWM.1 cells [4])	% change of MS signal compared to control sample (kinases in BCWM.1 cells [5])	% change of MS signal compared to control sample (kinases in BCWM.1 cells [6])	% change of MS signal compared to control sample (kinases in BCWM.1 cells [7])	% change of MS signal compared to control sample (kinases in BCWM.1 cells [8])	% change of MS signal compared to control sample (kinases in BCWM.1 cells [9])	% change of MS signal compared to control sample (kinases in BCWM.1 cells [10])	% change of MS signal compared to control sample (kinases in BCWM.1 cells [11])	% change of MS signal compared to control sample (kinases in BCWM.1 cells [12])	% change of MS signal compared to control sample (kinases in BCWM.1 cells [13])	% change of MS signal compared to control sample (kinases in BCWM.1 cells [14])	% change of MS signal compared to control sample (kinases in BCWM.1 cells [15])	% change of MS signal compared to control sample (kinases in BCWM.1 cells [16])	% change of MS signal compared to control sample (PIK3C3)	% change of MS signal compared to control sample (MAP2K3)	% change of MS signal compared to control sample (MST3)	% change of MS signal compared to control sample (LOK)	also measured
CCC(=O)N1CC[C@H](Nc2nccc(Nc3ncc(C(=O)Nc4c(C)cccc4C)s3)n2)C1 [Example I-9]	15.4%	−1.9%	−1.6%	−3.1%	11.4%	8%	12.7%	−2.3%	33.6%	−1.4%	15.9%	−21.3%	−5.7%	−5.6%	28.6%	14.3%					
C=CC(=O)N1CCC(Cn2ccc(Nc3ncc(C(=O)Nc4c(C)cccc4Cl)s3)n2)C1 (stereo not shown) [II-1]																	−4.7% and −11.6%	−19.5% and −15.9%	5.9% and 2.0%	−5.5% and −15.4%	% change of MS signal compared to control sample (RSK1 domain 1): −76.3%; % change of MS signal compared to control sample (IRAK4): 15.9% and 18.5%; % change of MS signal compared to control sample (CDK5): −11.2% and −8.0%; % change of MS signal compared to control sample (PLK1): 0.5% and −0.2%
C=CC(=O)N1CCC(CNc2nccc(Nc3ncc(C(=O)Nc4c(C)cccc4C)s3)n2)C1 (racemic) [Example I-8]																			−1.5% and −7.7%		% change of MS signal compared to control sample (SMG1): 23.1%; % change of MS signal compared to control sample (NDR2): 1.9% and 9.1%; % change of MS signal compared to control sample (FER): −7.7% and −4.8%; % change of MS signal compared to control sample (CHK2): −14.3% and −10.9%; % change of MS signal compared to control sample (MAP2K5): 19.2% and 30.9%; % change of MS signal compared to control sample (GCK): 2.0% and 2.4%; % change of MS signal compared to control sample (CHK1): 15.3% and 24.7%; % change of MS signal compared to control sample (MAP2K4): −8.5% and −6.1%
C=CC(=O)N1CC[C@@H](Nc2nccc(Nc3ncc(C(=O)Nc4c(C)cccc4C)s3)n2)C1 [Example I-4]																	−14.1% and −5.5%	−12.3% and −18.8%		−27.4%	% change of MS signal compared to control sample (NDR2): −42.0%; % change of MS signal compared to control sample (CHK2): −7.9% and 1.0%; % change of MS signal compared to control sample (RSK1 domain 1): −62.2% and −53.4%; % change of MS signal compared to control sample (IRAK4): 17.8% and 25.9%; % change of MS signal compared to control sample (CDK5): −7.1% and −7.2%; % change of MS signal compared to control sample (CHK1): 24.1%; % change of MS signal compared to control sample (PLK1): 17.4%; % change of MS signal compared to control sample (MAP2K4): −48.8%
C=CC(=O)N1CC[C@H](Nc2nccc(Nc3ncc(C(=O)Nc4c(C)cccc4C)s3)n2)C1 [Example I-3]	6.4%	4.7%	5.7%	−4.1%	32.9%	−14.7%	39.1%	−6.9%	−9.1%	2.3%	−77.2%	15.4%	9.9%	11.6%	46.4%	−32.7%					
C=CC(=O)N1CCCCC(Nc2nccc(Nc3ncc(C(=O)Nc4c(C)cccc4C)s3)n2)C1 (stereo not shown) [Example I-7]																					% change of MS signal compared to control sample (SMG1): 21.5%; % change of MS signal compared to control sample (FER): −5.8% and −5.3%; % change of MS signal compared to control sample (MAP2K5): 37.6% and 45.7%; % change of MS signal compared to control sample (GCK): −12.2% and −4.1%
